Source: patent US6407134B1, “Heterocyclecarbonyl amino acid hydroxyethylamino sulfonamide retroviral protease inhibitors” (G. D. Searle & Co., priority 1995, dated 2002)
Read-outs that look alike come from different tables or passages of the source.

Columns and labels:
HIV protease = target: T1, HIV protease (Human immunodeficiency virus type 1 group M subtype B, UniProt P04585); assay: HIV protease enzyme assay (fluorescence, substrate 2-Ile-Nle-Phe(p-NO2)-Gln-ArgNH2); type: biochemical
T1 construct: HIV protease is diluted in the assay buffer to a final enzyme concentration of 12.3 nanomolar, based on a molecular weight of 10,780
Excerpt: The compounds of the present invention are effective HIV protease inhibitors. Utilizing an enzyme assay as described below, the compounds set forth in the examples herein disclosed inhibited the HIV enzyme. The preferred compounds of the present invention and their calculated IC50 (inhibiting concentration 50%, i.e., the concentration at which the inhibitor compound reduces enzyme activity by 50%) values are shown in Table 10. The enzyme method is described below. The substrate is 2-Ile-Nle-Phe(p-NO2)-Gln-ArgNH2. The positive control is MVT-101 (Miller, M. et al, Science, 246, 1149 (1989)] The assay conditions are as follows:
20 mM sodium phosphate, pH 6.4
The above described substrate is dissolved in DMSO, then diluted 10 fold in assay buffer. Final substrate concentration in the assay is 80 μM. HIV protease is diluted in the assay buffer to a final enzyme concentration of 12.3 nanomolar, based on a molecular weight of 10,780.
The final concentration of DMSO is 14% and the final concentration of glycerol is 18%. The test compound is dissolved in DMSO and diluted in DMSO to 10× the test concentration; 10 μl of the enzyme preparation is added, the materials mixed and then the mixture is incubated at ambient temperature for 15 minutes. […] The increase in fluorescence is monitored at 4 time points (0, 8, 16 and 24 minutes) at ambient temperature. […]

HIV-1 in CEM cells = assay: CEM cell assay: HIV inhibition in acutely infected cells, tetrazolium (MTT) based colorimetric assay; details: Human immunodeficiency virus 1, CCRF-CEM, 168 h; CEM cells acutely infected with HIV-1, 7 days, MTT readout
Procedure: The effectiveness of various compounds were determined in the above-described enzyme assay and in a CEM cell assay.
The HIV inhibition assay method of acutely infected cells is an automated tetrazolium based colorimetric assay essentially that reported by Pauwles et al, J. Virol. Methods, 20, 309-321 (1988). Assays were performed in 96-well tissue culture plates. CEM cells, a CD4+ cell line, were grown in RPMI-1640 medium (Gibco) supplemented with a 10% fetal calf serum and were then treated with polybrene (2 μg/ml). An 80 μl volume of medium containing 1×10^4 cells was dispensed into each well of the tissue culture plate. To each well was added a 100 μl volume of test compound dissolved in tissue culture medium (or medium without test compound as a control) to achieve the desired final concentration and the cells were incubated at 37° C. for 1 hour. […] Likewise, the intrinsic toxicity of the test compound was determined by adding medium without virus to several wells containing test compound. […]
Following the addition of virus, cells were incubated at 37° C. in a humidified, 5% CO2 atmosphere for 7 days. […] The absorbance at 590 nm was determined for each sample using a Molecular Devices microplate reader. Absorbance values for each set of wells is compared to assess viral control infection, uninfected control cell response as well as test compound by cytotoxicity and antiviral efficacy.

## CC(C)CN(C[C@@H](O)[C@H](Cc1ccccc1)NC(=O)[C@@H](NC(=O)[C@@H]1CCCN1)C(C)(C)C)S(=O)(=O)c1ccc2c(c1)OCO2 [Entry 1]
HIV protease
  IC50: 2 nM
HIV-1 in CEM cells
  EC50: 12 nM

## CCC(C)[C@H](NC(=O)[C@@H]1CCCN1)C(=O)N[C@@H](Cc1ccccc1)[C@H](O)CN(CC(C)C)S(=O)(=O)c1ccc2c(c1)OCO2 (stereo partly drawn) [Entry 2]
HIV protease; HIV protease 12.3 nanomolar, substrate 80 μM, pH 6.4, ambient temperature, read-out: IC50
  IC50: 3 nM
